{
  "source": "patent US20090318465A1",
  "about": "“METHOD FOR IDENTIFYING COMPOUNDS THAT ACT AS INSULIN-SENSITIZERS” (priority 2006, published 2009)",
  "key": {"[1]": {"test_system": "dexamethasone treated insulin resistant 3T3-L1 adipocytes", "experiment": "Insulin resistance assay (IR assay), 14C-2-deoxyglucose uptake", "type": "cell-based, mouse", "excerpt": "A suitable insulin resistance assay includes screening of compounds which act as insulin-sensitizers using chronically dexamethasone treated 3T3-L1 adipocytes as an in vitro model. This is a known model for studying insulin signaling and insulin resistance. Chronically dexamethasone treated 3T3-L1 adipocytes serve as a valid in vitro model of insulin resistance resembling diabetes patients.\nIn an embodiment, the method according to the present invention includes screening compounds identified as active in the phenotype-based assay against dexamethasone treated insulin resistant adipocytes. For example, the method can include applying actives from the insulin sensitivity assay at a concentration of 1-10 μM to the insulin resistant adipocytes for 1-4 days. The adipocytes were previously prepared for the assay by long term exposure to dexamethasone, for example, at 100 nM for about 24-48 hours.\nThe method can also include determining whether the compounds enhance glucose uptake in the insulin resistant adipocytes by more than 50% above that enhanced by insulin. The method can then include selecting compounds as active, if they caused 1.5 fold or more increase in glucose uptake compared to insulin treated adipocytes. Glucose uptake can be measured by any of a variety of known methods, such as measuring uptake of ^14C-labeled 2-deoxyglucose, a non metabolisable analogue of D-Glucose.\nThe assay was designed as in the reference, British Journal of Pharmacology, 130, 351-58, 2000, which is incorporated herein by reference for disclosure of the assay.\nThe solution of test compound (10 μM/mL) was prepared in DMSO.\nRosiglitazone (0.1 μM in DMSO) was used as standard.\nDifferentiation into adipocytes was induced by known methods as described below. (J. Biol. Chem., 260, 2646-2652, 1985, which is incorporated herein by reference for disclosure of the induction).\nCulture medium containing […] 1-methyl-3-isobutylxanthine (IBMX), 0.25 μM dexamethasone, 5 μg/ml insulin (bovine/human), 10 mM HEPES buffer and fetal bovine serum (FBS) 10% by volume in Dulbecco's modified Eagle's medium (DMEM) was used for differentiation.\n3T3 L1 fibroblasts were seeded in 24-well or 6-well plates at a density of 0.5-2×10^4 cells/well and were allowed to reach maximal confluency.\nThe confluent fibroblasts were exposed to culture medium for 2 days. After this period, fresh culture medium (DMEM) containing only insulin was used, 10% FBS was added and cultured for 4 days with change of medium every 2 days. After 7 days the cultures received DMEM containing 10% FBS with no exposure to insulin. By the end of 8-10 days, more than 95% of the cells have become differentiated into adipocytes.\nThe mature adipocytes were exposed to dexamethasone, 100 nM added in ethanol, in culture medium and incubated for 2 days. On the third day, solution of test compound was added along with 100 nM dexamethasone containing medium for 4 days with a change in medium after every 2 days. Vehicle control contained 1% v/v of DMSO. Rosiglitazone was used as a standard and was added at a concentration of 0.1 μM in DMSO, along with 100 nM dexamethasone containing medium for 4 days with a change in medium after every 2 days. After a total period of 6 days, the cells were processed for glucose uptake as follows.\nThe insulin resistant adipocytes were exposed to serum-free DMEM containing 0.1% bovine serum albumin for 3-4 hours at 37° C. in CO2 atmosphere. The test compound was also present during this period. After 3-4 hours, the medium was aspirated and replaced with Kreb's Ringer phosphate (KRP) buffer at pH 7.4 and with human/porcine insulin, 200 nM. The cells were incubated for 30 minutes at 37° C. At the end of 30 minutes, 0.05 or 0.1 μCi of ^14C-2-deoxyglucose was added to each well of either 24-well or 6-well plates respectively and was incubated for exactly 5 minutes. After exactly 5 minutes, the plates were transferred to ice trays and medium was rapidly aspirated. […]"}, "3T3 L1 fibroblasts": {"test_system": "3T3 L1 fibroblasts", "experiment": "Adipogenesis assay (phenotype-based primary screen)", "type": "cell-based, mouse", "conditions": "test compound 20 μg/ml plus 5 μg/ml insulin, 8 days", "experimental": "The phenotype-based assay used for screening the test compounds in the first screening step is an adipogenesis assay. Any of a variety of adipogenesis assays can be employed. Suitable adipogenesis assays can employ fibroblasts 3T3-L1, which can be derived from mouse and insulin, for example, of either human, porcine or bovine origin. The test compounds can be dissolved at a suitable concentration (e.g., 20 μg/ml) in a suitable solvent such as DMSO. Fibroblasts can be grown in 96-well plates containing sufficient cells, for example 5×10^4 cells/well, that are cultured in nutrient medium along with 5 μg/ml of insulin. After 3 days of incubation in CO2 incubators at 37° C., the nutrient medium with compounds is removed and fresh medium is exposed to the cells. After 8 days, the ability of compounds to potentiate insulin effect on transformation into fat filled cells, adipocytes, was assessed by observing under an inverted microscope. The lipid droplets are stained with Oil red O and percentage of stained cells is determined (e.g., estimated).\nCompounds that caused the formation of adipocytes by more than 5 times the vehicle are termed as actives.\nThe assay was designed as in the reference J. Bio. […]\nAt the end of 8 days, the number of fat filled adipocytes formed in each well was assessed by observing under microscope. […]"}},
  "data": [
    {"compound": "CCOC(=O)c1ccc(C(=N)NC(=O)OC)cc1C", "note": "[Compound 9, 4-(Imino-methoxycarbonylaminomethyl)-2-methyl-benzoic acid ethyl ester]", "values": [
      {"measurement": "activity in insulin resistance assay (cut off 1.5-fold of vehicle)", "setting": "[1]; insulin resistant adipocytes, glucose uptake", "result": "inactive"},
      {"measurement": "% of Rosiglitazone (comparison with Rosiglitazone)", "setting": "[1]; test compound 10 μM/mL versus Rosiglitazone 0.1 μM", "result": "NIL"},
      {"measurement": "Fold vehicle (fold activity over vehicle)", "setting": "[1]; test compound 10 μM/mL, glucose uptake with 200 nM insulin, vehicle = 1.0", "result": "1.01 ± 0.27"},
      {"measurement": "activity in adipogenesis assay (active = adipocytes more than 5 times the vehicle)", "setting": "3T3 L1 fibroblasts", "result": "inactive"}
    ]}
  ]
}
